Experimental data taken from US20170009266A1, “PROCESS FOR THE ATTACHMENT OF A GALNAC MOIETY COMPRISING A (HETERO)ARYL GROUP TO A GLCNAC MOIETY, AND PRODUCT OBTAINED THEREBY” (SYNAFFIX B.V., priority 2014, published 2017).
Numbering of substitutions follows the chain as printed. Values belong to the compound of their own block, whether it stands above or below them.

Key:
[1] = target: T1, β(1,4)-Gal-T1(Y289L) (Bos taurus, UniProt P08037, I205M/L206V/P187L/V158I/Y289L); test: Glycosyltransfer of UDP-galactosamine derivatives to trimmed trastuzumab with Gal-T1(Y289L) expressed in E. coli, mass spectral analysis; type: biochemical, bovine; conditions: trimmed trastuzumab 10 mg/mL, pH 8.0, 30° C. overnight, reduced sample
T1 construct: made in house; host or cells: E. coli
T1 sequence (P08037 1-402 V158I/P187L/I205M/L206V/Y289L): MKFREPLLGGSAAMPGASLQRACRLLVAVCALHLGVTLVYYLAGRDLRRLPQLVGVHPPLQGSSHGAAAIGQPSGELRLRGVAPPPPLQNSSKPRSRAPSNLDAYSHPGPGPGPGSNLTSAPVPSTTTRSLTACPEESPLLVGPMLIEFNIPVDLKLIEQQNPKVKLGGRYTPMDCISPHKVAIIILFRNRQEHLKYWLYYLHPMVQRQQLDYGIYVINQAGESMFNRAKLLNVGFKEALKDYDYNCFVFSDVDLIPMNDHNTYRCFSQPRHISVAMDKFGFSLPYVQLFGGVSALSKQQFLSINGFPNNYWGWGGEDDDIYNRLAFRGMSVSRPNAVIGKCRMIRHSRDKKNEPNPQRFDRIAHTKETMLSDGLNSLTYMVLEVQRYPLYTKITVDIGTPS
Experimental: General Protocol for Glycosyltransfer of Galactose Derivative UDP-GalNAz 21-24 with Gal-T1(Y289L) (Expressed in E. coli).
Enzymatic introduction of UDP-Gal derivatives 21-24 onto deglycosylated trastuzumab was effected with a mutant of bovine β(1,4)-galactosyltransferase [β(1,4)-Gal-T1(Y289L)] (expressed in E. coli). The deglycosylated trastuzumab (10 mg/mL) was incubated with the appropriate UDP-galactose derivative (0.4 mM) and β(1,4)-Gal-T1(Y289L) (1 mg/mL) in 10 mM MnCl2 and 25 mM Tris-HCl pH 8.0 for 16 hours at 30° C.
Next, the functionalized trastuzumab was incubated with protein A agarose (40 μL per mg IgG) for 2 hours at 4° C. The protein A agarose was washed three times with PBS and the IgG was eluted with 100 mM glycine-HCl pH 2.7. The eluted IgG was neutralized with 1 M Tris-HCl pH 8.0 and concentrated and washed with PBS using an Amicon Ultra-0.5, Ultracel-10 Membrane (Millipore) to a concentration of 15-20 mg/mL.
Trimmed trastuzumab (10 mg/mL, 3.3 nmol), obtained by Endo S treatment of trastuzumab, was incubated with UDP-galactosamine variant 21 (2.5 mM) and β(1,4)-Gal-T1(Y289L) (0.68 mg/mL, 45 μL) in 10 mM MnCl2 and 25 mM Tris-HCl pH 8.0 at 30° C. overnight.
Trimmed trastuzumab (10 mg/mL, 1.3 nmol), obtained by Endo S treatment of trastuzumab, was incubated with UDP-galactosamine variant 22 (4 mM) and β(1,4)-Gal-T1(Y289L) (1.4 mg/mL, 10 μL) in 10 mM MnCl2 and 25 mM Tris-HCl pH 8.0 at 30° C. overnight. Mass spectral analysis of the reduced sample indicated the formation of the product (49750.9 Da, approximately 80% of total heavy chain), resulting from galactosamide furan-2-carboxyl acid transfer to core GlcNAc(Fuc) substituted trastuzumab heavy chain as shown in FIG. 9.
Trimmed trastuzumab (10 mg/mL, 6.6 nmol), obtained by Endo S treatment of trastuzumab, was incubated with the 4-azido-3,5-difluorobenzoyl derivative of UDP-galactosamine (23, 7 mM) and β(1,4)-Gal-T1(Y289L) (2 mg/mL) in 10 mM MnCl2 and 25 mM Tris-HCl pH 8.0 at 30° C. overnight. Mass spectral analysis of the reduced sample indicated the formation of a one major product (49813 Da, approximately 90% of total heavy chain), resulting from transfer of 23 to core GlcNAc(Fuc)-substituted trastuzumab heavy chain.
Trimmed trastuzumab (10 mg/mL, 1.3 nmol), obtained by Endo S treatment of trastuzumab, was incubated with UDP-galactosamine variant 24 (4 mM) and (3(1,4)-Gal-T1(Y289L) (1.4 mg/mL, 10 μL) in 10 mM MnCl2 and 25 mM Tris-HCl pH 8.0 at 30° C. overnight.

[2] = target: T2, Gal-T1(Y289L,C342T) (Bos taurus, UniProt P08037, C342T/Y289L); test: Glycosyltransfer to trimmed trastuzumab with Gal-T1(Y289L,C342T) expressed in CHO; type: biochemical, bovine; conditions: trimmed trastuzumab 10 mg/mL; UDP derivative 1 mM; enzyme 1.0 mg/mL; pH 8.0, 30° C. overnight
T2 construct: host or cells: CHO K1
T2 sequence (P08037 74-402 V158I/P187L/I205M/L206V/Y289L/C342T): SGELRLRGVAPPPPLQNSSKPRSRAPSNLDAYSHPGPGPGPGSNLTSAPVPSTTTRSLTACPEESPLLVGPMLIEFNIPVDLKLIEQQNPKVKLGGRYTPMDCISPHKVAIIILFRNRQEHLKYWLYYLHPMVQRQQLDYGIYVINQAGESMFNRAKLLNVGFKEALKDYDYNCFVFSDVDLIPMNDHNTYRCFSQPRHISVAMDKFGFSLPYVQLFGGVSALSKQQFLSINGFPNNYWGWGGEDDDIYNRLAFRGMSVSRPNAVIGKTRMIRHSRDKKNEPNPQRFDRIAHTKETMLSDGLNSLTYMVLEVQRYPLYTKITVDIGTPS
Experimental: (§1) A solution of 20 μg (modified) IgG was incubated for 1 hour at 37° C. with Fabricator™ (commercially available from Genovis, Lund, Sweden) (1.25 U/μL) in phosphate-buffered saline (PBS) pH 6.6 in a total volume of 10 μL. Fabricator™-digested samples were washed trice with milliQ using an Amicon Ultra-0.5, Ultracel-10 Membrane (Millipore) resulting in a final sample volume of approximately 40 μL. The Fc/2 fragment was analyzed by electrospray ionization time-of-flight (ESI-TOF) on a JEOL AccuTOF. Deconvoluted spectra were obtained using Magtran software.
(§2) A set of Gal-T 1 mutants encoding residues 74-402 of bovine Gal-T 1 were transiently expressed in CHO K1 cells by Evitria (Zurich, Switzerland) which include the Gal-T1 single mutants Y289L (represented by SEQ ID NO: 26), Y289F (represented by SEQ ID NO: 27), Y289M (represented by SEQ ID NO: 28), Y289V (represented by SEQ ID NO: 29), Y289A (represented by SEQ ID NO: 30), and Y289G (represented by SEQ ID NO: 31), and the Gal-T1 double mutants Y289L,C342T (represented by SEQ ID NO: 32), and Y289M,C342T (represented by SEQ ID NO: 33). The mutants were purified using a cation exchange column (Source 15S HR16/10 column, GE Healthcare) as described above. Purified proteins were analyzed by SDS-PAGE. […]

[3] = target: T3, Gal-T1(Y289M,C342T) (Bos taurus, UniProt P08037, C342T/Y289M); test: Glycosyltransfer to trimmed trastuzumab with Gal-T1(Y289M,C342T) expressed in CHO; type: biochemical, bovine; conditions: trimmed trastuzumab 10 mg/mL; UDP derivative 5 mM; enzyme 1.0 mg/mL; pH 8.0, 30° C. overnight
T3 construct: host or cells: CHO K1
T3 sequence (P08037 74-402 V158I/P187L/I205M/L206V/Y289M/C342T): T2 sequence (P08037 74-402 V158I/P187L/I205M/L206V/Y289L/C342T) with L216M
Experimental: as §1, §2

[4] = target: T4, β4Gal-T1 (Bos taurus, UniProt P08037); conditions: native enzyme; cited from earlier work
T4 sequence (P08037 1-402): T1 sequence (P08037 1-402 V158I/P187L/I205M/L206V/Y289L) with I158V, L187P, M205I, V206L, L289Y

[5] = target: T5, β4Gal-T1(Y289L) (Bos taurus, UniProt P08037, Y289L); conditions: GlcNAc acceptor; cited from earlier work
T5 sequence (P08037 1-402 Y289L): T1 sequence (P08037 1-402 V158I/P187L/I205M/L206V/Y289L) with I158V, L187P, M205I, V206L

[6] = UDP derivative 4 mM, enzyme 1.4 mg/mL

SMILES: O=C(NC1C(OP(=O)(O)OP(=O)(O)OCC2OC(n3ccc(=O)[nH]c3=O)C(O)C2O)OC(CO)C(O)C1O)c1cccnc1 (stereo not shown) [Compound 21, 3-pyridylcarbonyl Derivative of UDP-GalNH2]
- product, % of total heavy chain ([1]; UDP derivative 2.5 mM, enzyme 0.68 mg/mL): approximately 5%

- product, % of total heavy chain [1, 6]: approximately 80%
SMILES: O=C(NC1C(OP(=O)(O)OP(=O)(O)OCC2OC(n3ccc(=O)[nH]c3=O)C(O)C2O)OC(CO)C(O)C1O)c1ccco1 (stereo not shown) [Compound 22, Furylcarbonyl Derivative of UDP-GalNH2]

SMILES: [N-]=[N+]=Nc1c(F)c(F)c(C(=O)N[C@H]2[C@@H](OP(=O)(O)OP(=O)(O)OC[C@H]3O[C@@H](n4ccc(=O)[nH]c4=O)[C@H](O)[C@@H]3O)O[C@H](CO)[C@H](O)[C@@H]2O)c(F)c1F [Compound 23b, 4-azido-2,3,5,6-tetrafluorobenzoyl Derivative of UDP-GalNH2]
- conversion into product [2]: approximately 70%
- conversion into product [3]: approximately 10%

- product, % of total heavy chain [1, 6]: approximately 90%
SMILES: O=C(NC1C(OP(=O)(O)OP(=O)(O)OCC2OC(n3ccc(=O)[nH]c3=O)C(O)C2O)OC(CO)C(O)C1O)C1CCCC1 (stereo not shown) [Compound 24, Cyclopentylcarbonyl Derivative of UDP-GalNH2]

SMILES: CC(=O)N[C@H]1[C@@H](OP(=O)(O)OP(=O)(O)OC[C@H]2O[C@@H](n3ccc(=O)[nH]c3=O)[C@H](O)[C@@H]2O)O[C@H](CO)[C@H](O)[C@@H]1O [UDP-GalNAc]
- efficiency of GalNAc transfer compared to Gal transfer from UDP-Gal [4]: 0.1%
- efficiency of GalNAc transfer relative to β4Gal-T1/Gal transfer [5]: ~100%
